Measurements reported in patent US6806230B1, “Pyrimidine derivatives and herbicides containing them” (Kumiai Chemical Industry Co., Ltd., priority 1999, dated 2004).

Columns and labels:
Format in all cases: in vivo
barnyard grass (Eo) [1] = assay: Test Example 1: herbicidal effects by flooded paddy field treatment; set-up: herbicidal effects, Eo (barnyard grass):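 0-5 growth inhibition grade; 5 = over 90%; 4 = 70-90%; 3 = 50-70%; 2 = 30-50%; 1 = 10-30%; 0 = under 10%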; settings: for Herbicidal effect index, Eo: dose 100 gai/10a, examined on 21st day after treatment, index 0-5 per Table 44; for herbicidal effects, Eo (barnyard grass): dose 100 g active ingredient per 10 ares, examined on the 21st day after treatment, standards of Table 44;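 as to Herbicidal effect index, Eo: 0-5 growth inhibition grade; 5 = over 90%; 4 = 70-90%; 3 = 50-70%; 2 = 30-50%; 1 = 10-30%; 0 = under 10%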
Method in brief: (§1)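 Seeds were sown in puddled paddy soil in pots and flooded to 3 cm. The next day a water-diluted wettable powder was dripped onto the water surface at 100 g active ingredient per 10 ares. Plants grew in a greenhouse, and herbicidal effect was scored on a rating scale 21 days after treatment.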

monochoria (Mo) [2] = assay: as above; set-up: herbicidal effects, Mo (monochoria):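 0-5 growth inhibition grade; 5 = over 90%; 4 = 70-90%; 3 = 50-70%; 2 = 30-50%; 1 = 10-30%; 0 = under 10%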; settings: for Herbicidal effect index, Mo: dose 100 gai/10a, examined on 21st day after treatment, index 0-5 per Table 44; for herbicidal effects, Mo (monochoria): dose 100 g active ingredient per 10 ares, examined on the 21st day after treatment, standards of Table 44
Method in brief: as §1

barnyard grass (Ec) [3] = assay: Test Example 2: herbicidal effects by upland soil treatment; set-up: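 0-5 growth inhibition grade; 5 = over 90%; 4 = 70-90%; 3 = 50-70%; 2 = 30-50%; 1 = 10-30%; 0 = under 10%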; settings: dose 100 g active ingredient per 10 ares, examined on the 21st day after treatment, standards of Table 44
Method in brief: (§2)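 Pre-emergence test: barnyard grass and green foxtail sown in upland soil, then soil surface sprayed with wettable-powder formulation at 100 g active ingredient per 10 ares (100 l per 10 ares). Grown in greenhouse; herbicidal effect scored on a rating scale 21 days after treatment.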

green foxtail (Se) = assay: as above; settings: dose 100 g active ingredient per 10 ares, examined on the 21st day after treatment, standards of Table 44;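 also: 0-5 growth inhibition grade; 5 = over 90%; 4 = 70-90%; 3 = 50-70%; 2 = 30-50%; 1 = 10-30%; 0 = under 10%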
Method in brief: as §2

barnyard grass (Ec) [4] = assay: Test Example 3: herbicidal effects by foliage treatment in upland field; set-up: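 0-5 growth inhibition grade; 5 = over 90%; 4 = 70-90%; 3 = 50-70%; 2 = 30-50%; 1 = 10-30%; 0 = under 10%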; settings: dose 100 g active ingredient per 10 ares, examined on the 14th day after treatment
Method in brief: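 Barnyard grass and green foxtail were grown in upland soil for 2 weeks in a greenhouse. A water-diluted wettable powder was sprayed over the foliage at 100 l per 10 ares, giving 100 g active ingredient per 10 ares. Herbicidal effect was scored on day 14 after treatment.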

barnyard grass (Eo) [5] = assay: Test Example 4: selectivity for a crop plant by flooded paddy field treatment; set-up: scale not given here; settings: dose 25 g active ingredient per 10 ares, examined on the 21st day after treatment
Method in brief: (§3)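 Paddy soil in pots was puddled, weed seeds were sown, second-leaf-stage rice was transplanted, and the pots were flooded to 3 cm. The next day a water-diluted wettable powder was dropped onto the water surface at 25 g active ingredient per 10 ares. Herbicidal effect was scored on a rating scale 21 days after treatment in a greenhouse.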

monochoria (Mo) [6] = assay: as above; set-up: scale not given here; settings: dose 25 g active ingredient per 10 ares, examined on the 21st day after treatment
Method in brief: as §3

rice (Or) = assay: as above; set-up: scale not given here; settings: rice transplanted at second leaf stage, dose 25 g active ingredient per 10 ares, examined on the 21st day after treatment
Method in brief: as §3
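For Herbicidal effect index, Mo in this document: 0-5 growth inhibition grade; 5 = over 90%; 4 = 70-90%; 3 = 50-70%; 2 = 30-50%; 1 = 10-30%; 0 = under 10%.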

Row | Structure (SMILES) | Herbicidal effect index, Eo (barnyard grass (Eo) [1]) | Herbicidal effect index, Mo (monochoria (Mo) [2]) | herbicidal effects, Ec (barnyard grass) (barnyard grass (Ec) [3]) | herbicidal effects, Se (green foxtail) (green foxtail (Se)) | Ec (herbicidal effects, index) (barnyard grass (Ec) [4]) | Eo (herbicidal effects, index) (barnyard grass (Eo) [5]) | Mo (herbicidal effects, index) (monochoria (Mo) [6]) | Or (effect on crop plant rice, index) (rice (Or)) | herbicidal effects, Eo (barnyard grass) (barnyard grass (Eo) [1]) | herbicidal effects, Mo (monochoria) (monochoria (Mo) [2])
1 | CCN(C(=O)Cc1ccccc1)C(c1cncnc1C(F)(F)F)C(C)C (racemic) [Compound 1-26] | 5 | 5 | 5 | 5 | 4 | 5 | 5 | 1 | – | –
2 | CC(C)C(c1cncnc1C(F)(F)F)N(C)C(=O)Cc1ccc(C(F)(F)F)cc1 (racemic) [Compound 1-24] | 5 | 5 | 5 | 5 | 4 | – | – | – | – | –
3 | C#CCN(C(=O)Cc1ccc(Cl)cc1)C(c1cncnc1C(F)(F)F)C(C)C (racemic) [1-194] | – | – | 5 | 5 | 5 | – | – | – | 5 | 5
4 | CN(C(=O)Cc1ccccc1)C(c1cncnc1C(F)(F)F)C(C)(C)C (racemic) [1-196] | – | – | 5 | 5 | 5 | – | – | – | 5 | 5
5 | CC(C(=O)N(C)C(c1cncnc1C(F)(F)F)C(C)C)c1ccc(F)cc1 (mixture of isomers) [1-198] | – | – | 5 | 5 | 4 | – | – | – | 5 | 5
6 | CC(C)C(c1cncnc1C(F)(F)F)N(C)C(=O)Cc1ccc(F)c(F)c1 (racemic) [Compound 1-122] | 5 | 5 | 5 | 5 | 4 | – | – | – | – | –
7 | CC(C)C(c1cncnc1C(F)(F)F)N(C)C(=O)Cc1ccc(OC(F)F)cc1 (racemic) [Compound 1-96] | 5 | 5 | 5 | 5 | 5 | – | – | – | – | –
8 | COc1ccc(C(C)C(=O)N(C)C(c2cncnc2C(F)(F)F)C(C)C)cc1 (mixture of isomers) [1-192] | – | – | 5 | 5 | 4 | – | – | – | 5 | 5
9 | CCCC(c1cncnc1C(F)(F)F)N(C)C(=O)Cc1ccc(F)cc1 (racemic) [Compound 1-112] | 5 | 5 | 5 | 5 | 4 | – | – | – | – | –
10 | C#CCN(C(=O)Cc1ccccc1)C(c1cncnc1C(F)(F)F)C(C)C (racemic) [1-193] | – | – | 5 | 5 | 5 | – | – | – | 5 | 5
11 | CCC(C)C(c1cncnc1C(F)(F)F)N(C)C(=O)Cc1ccccc1 (mixture of isomers) [Compound 1-57] | 5 | 5 | 5 | 5 | 5 | – | – | – | – | –
12 | CC(C)C(c1cncnc1C(F)(F)F)N(C)C(=O)Cc1cccc(F)c1 (racemic) [Compound 1-66] | 5 | 5 | 5 | 5 | 5 | – | – | – | – | –
13 | CC(C(=O)N(C)C(c1cncnc1C(F)(F)F)C(C)C)c1ccccc1 (mixture of isomers) [1-195] | – | – | 5 | 5 | 5 | – | – | – | 5 | 5
14 | CC(C)C(c1cncnc1C(F)(F)F)N(C)C(=O)COc1ccc(F)cc1 (racemic) [Compound 1-127] | 5 | 5 | 5 | 5 | 4 | – | – | – | – | –
15 | CC(C)C(c1cncnc1C(F)F)N(C)C(=O)Cc1ccc(F)cc1 (racemic) [Compound 1-164] | – | – | 5 | 5 | 4 | – | – | – | 5 | 5
16 | CC(C)C(c1cncnc1C(F)(F)F)N(C)C(=S)Cc1ccc(F)cc1 (racemic) [Compound 1-143] | – | – | 5 | 5 | 4 | – | – | – | 5 | 5
17 | CCN(C(=O)Cc1ccc(F)cc1)C(c1cncnc1C(F)(F)F)C(C)C (racemic) [Compound 1-27] | 5 | 5 | 5 | 5 | 4 | – | – | – | – | –
18 | COc1ccc(CC(=O)N(C)C(c2cncnc2C(F)(F)F)C(C)C)cc1 (racemic) [Compound 1-9] | 5 | 5 | 5 | 5 | 5 | – | – | – | – | –
19 | CN(C(=O)Cc1ccccc1)C(c1ccccc1)c1cncnc1C(F)(F)F (racemic) [1-186] | – | – | 5 | 5 | 5 | – | – | – | 5 | 5
20 | CC(C)C(c1cncnc1C(F)(F)F)N(C)C(=O)Cc1ccc(F)cc1 (racemic) [Compound 1-12] | 5 | 5 | 5 | 5 | 5 | – | – | – | – | –
21 | CC(C)c1ncncc1C(c1ccccc1)N(C)C(=O)Cc1ccc(F)cc1 (racemic) [1-214] | – | – | 5 | 5 | 4 | – | – | – | 5 | 5
22 | CC(C)C(c1cncnc1C(F)(F)F)N(C)C(=O)Sc1ccccc1 (racemic) [Compound 1-10] | 5 | 5 | 4 | 4 | 4 | – | – | – | – | –
23 | Cc1ncncc1C(C(C)C)N(C)C(=O)Cc1ccc(F)cc1 (racemic) [Compound 1-88] | 5 | 5 | 5 | 5 | 4 | – | – | – | – | –
